In US20140050720A1, “ULTRALONG COMPLEMENTARITY DETERMINING REGIONS AND USES THEREOF” (THE SCRIPPS RESEARCH INSTITUTE, priority 2012, published 2014):

What was measured:
mice neutrophils = assay: Neutrophils counts in mice; assay type: in vivo; details: mice blood, 10th day post-injection, neutrophils among white blood cells
Method: On the 10th day after injection of BLV1H12-bGCSF fusion antibodies into mice for PK study, blood samples were drawn from the mice and stained using the Diff Quick Staining Kit (Thermo Fisher Scientific, IL). Neutrophils and white blood cells were counted under microscope and the percentages of neutrophils were analyzed. FIGS. 12A-12B and Table 12 show proliferative activities of BLV1H12-bGCSF fusion antibodies on mice neutrophils that are blood stained and counted at the 10th day post-injection.

[1] = Pharmacokinetics of BLV1H12-bGCSF fusion antibodies in mice; assay type: in vivo; details: BALB/c mice, 70 μg injected
Method: For PK study in mice, 70 μg of the immunoglobulin constructs described herein were injected into 3 BALB/c mice per group. Blood samples were drawn from time 0 to 14 days with extended intervals and analyzed by ELISA using anti-human IgG Fc antibody with horseradish peroxidase (HRP) labeled (KPL) and anti-6×His antibody with HRP labeled (Clontech). Data were normalized by taking maximal concentration at the first time point (30 min).

Mouse NFS-60 cells = assay: Proliferation assay on mouse NFS-60 cells (AlamarBlue); assay type: cell-based; details: 72 hours
Method: Mouse NFS-60 cells were obtained from American Type Culture Collection (ATCC), VA, and cultured in RPMI-1640 medium supplemented with 10% fetal bovine serum (FBS), 0.05 mM 2-mercapoethanol and 62 ng/ml human macrophage colony stimulating factor (M-CSF). For proliferation assay, mouse NFS-60 cells were washed three times with RPMI-1640 medium and resuspended in RPMI-1640 medium with 10% FBS and 0.05 mM 2-mercapoethanol at a density of 1.5×10^5 cells/ml. In 96-well plates, 100 μl of cell suspension was added into each well, followed by the addition of varied concentrations of bGCSF, BLV1H12 antibody, and the immunoglobulin constructs described herein, Equal volume of PBS buffer was added into the control wells. The plates were incubated at 37° C. in a 5% CO2 incubator for 72 hours. Cells were then treated with AlamarBlue (Invitrogen) ( 1/10 volume of cell suspension) for 4 hours at 37° C. Fluorescence at 595 nm for each well was read to indicate the cell viability.

Human mPB CD34+ cells = assay: Proliferative activity on human granulocyte progenitors (flow cytometry); assay type: cell-based; details: 7 days
Method: Human mPB CD34^+ cells were purchased from AllCells. Cells were resuspended in HSC expansion medium (StemSpan SFEM, StemCell Technologies) supplemented with 1× antibiotics and the following recombinant human cytokines thrombopoietin, IL6, Flt3 ligand, and stem cell factor (100 ng/mL, R & D Systems), then plated in 96-well plates (1000 cells per well), with varied concentrations of BLV1H12-bGCSF fusion antibodies. Cells were cultured for 7 days at 37° C. in a 5% CO2 incubator, then analyzed by flow cytometry to measure cell number and expression of CD45ra and CD41. Cells were stained in staining medium (HBSS supplemented with 2% FBS and 2 mM EDTA) at 4° C. for 1 h with PECy7 anti-CD45ra and eFluor 450 anti-CD41 (eBiosciences), then washed with staining medium and analyzed. Multicolor analysis for cell phenotyping was performed on a LSR II flow cytometer (Becton Dickinson). FIGS. 10A-10E and Tables 9-10 show the human granulocyte progenitor cell proliferative activities of the Ab-GCSF fusion antibodies.

With “Ab-bGCSF L0: bovine G-CSF replacing the knob domain of BLV1H12 CDR3H, no linker (n=0); DNA SEQ ID NO: 4” the “Percentage of Neutrophil” value (mice neutrophils) was 25.05, the “Percentage (normalized to maximal concentration at the first time point, 30 min)” value ([1]; day 0.021) was 100.00% and the “Percentage (normalized to maximal concentration at the first time point, 30 min)” value ([1]; day 0.042) was 91.12%. For the same substance, the “Percentage (normalized to maximal concentration at the first time point, 30 min)” value ([1]; day 0.083) was 91.24%, the “Percentage (normalized to maximal concentration at the first time point, 30 min)” value ([1]; day 0.125) was 91.56% and the “Percentage (normalized to maximal concentration at the first time point, 30 min)” value ([1]; day 0.250) was 61.22%. For the same substance, the “Percentage (normalized to maximal concentration at the first time point, 30 min)” value ([1]; day 1.000) was 44.22%, the “Percentage (normalized to maximal concentration at the first time point, 30 min)” value ([1]; day 2.000) was 36.36% and the “Percentage (normalized to maximal concentration at the first time point, 30 min)” value ([1]; day 3.000) was 27.38%. The “Percentage (normalized to maximal concentration at the first time point, 30 min)” value ([1]; day 8.000) was 11.53%, the “Percentage (normalized to maximal concentration at the first time point, 30 min)” value ([1]; day 10.000) was 12.44% and the “Percentage (normalized to maximal concentration at the first time point, 30 min)” value ([1]; day 14.000) was 14.35%. The “F.I. (AlamarBlue fluorescence at 595 nm, cell viability)” value (Mouse NFS-60 cells; 0.09876 ng/mL) was 1328, the “F.I. (AlamarBlue fluorescence at 595 nm, cell viability)” value (Mouse NFS-60 cells; 0.29627 ng/mL) was 1436 and the “F.I. (AlamarBlue fluorescence at 595 nm, cell viability)” value (Mouse NFS-60 cells; 0.88881 ng/mL) was 1734.765. The “F.I. (AlamarBlue fluorescence at 595 nm, cell viability)” value (Mouse NFS-60 cells; 2.66642 ng/mL) was 2189, the “F.I. (AlamarBlue fluorescence at 595 nm, cell viability)” value (Mouse NFS-60 cells; 7.99927 ng/mL) was 2680 and the “F.I. (AlamarBlue fluorescence at 595 nm, cell viability)” value (Mouse NFS-60 cells; 23.9978 ng/mL) was 2899. For the same substance, the “F.I. (AlamarBlue fluorescence at 595 nm, cell viability)” value (Mouse NFS-60 cells; 71.9934 ng/mL) was 2921, the “F.I. (AlamarBlue fluorescence at 595 nm, cell viability)” value (Mouse NFS-60 cells; 215.9802 ng/mL) was 3416 and the “Number of CD45RA− CD41−” value (Human mPB CD34+ cells; 0.14225 ng/mL) was 2601. The “Number of CD45RA− CD41−” value (Human mPB CD34+ cells; 0.42676 ng/mL) was 2253, the “Number of CD45RA− CD41−” value (Human mPB CD34+ cells; 3.84088 ng/mL) was 4399 and the “Number of CD45RA− CD41−” value (Human mPB CD34+ cells; 11.52263 ng/mL) was 7262. The “Number of CD45RA− CD41−” value (Human mPB CD34+ cells; 34.5679 ng/mL) was 9902, the “Number of CD45RA− CD41−” value (Human mPB CD34+ cells; 103.7037 ng/mL) was 11500 and the “Number of CD45RA− CD41−” value (Human mPB CD34+ cells; 311.11111 ng/mL) was 11500. The “Number of CD45RA− CD41−” value (Human mPB CD34+ cells; 933.33333 ng/mL) was 11900 and the “Number of CD45RA− CD41−” value (Human mPB CD34+ cells; 2800 ng/mL) was 12100.

With “Ab-bGCSF L1: bovine G-CSF replacing the knob domain of BLV1H12 CDR3H with GGGGS linkers on both ends; DNA SEQ ID NO: 5” the “Percentage of Neutrophil” value (mice neutrophils) was 25.32, the “Percentage (normalized to maximal concentration at the first time point, 30 min)” value ([1]; day 0.021) was 100.00% and the “Percentage (normalized to maximal concentration at the first time point, 30 min)” value ([1]; day 0.042) was 102.12%. The “Percentage (normalized to maximal concentration at the first time point, 30 min)” value ([1]; day 0.083) was 104.03%, the “Percentage (normalized to maximal concentration at the first time point, 30 min)” value ([1]; day 0.125) was 101.71% and the “Percentage (normalized to maximal concentration at the first time point, 30 min)” value ([1]; day 0.250) was 93.90%. The “Percentage (normalized to maximal concentration at the first time point, 30 min)” value ([1]; day 1.000) was 59.26%, the “Percentage (normalized to maximal concentration at the first time point, 30 min)” value ([1]; day 2.000) was 56.66% and the “Percentage (normalized to maximal concentration at the first time point, 30 min)” value ([1]; day 3.000) was 39.09%. For the same substance, the “Percentage (normalized to maximal concentration at the first time point, 30 min)” value ([1]; day 8.000) was 22.21%, the “Percentage (normalized to maximal concentration at the first time point, 30 min)” value ([1]; day 10.000) was 21.15% and the “Percentage (normalized to maximal concentration at the first time point, 30 min)” value ([1]; day 14.000) was 21.41%. The “F.I. (AlamarBlue fluorescence at 595 nm, cell viability)” value (Mouse NFS-60 cells; 0.09808 ng/mL) was 1412.387, the “F.I. (AlamarBlue fluorescence at 595 nm, cell viability)” value (Mouse NFS-60 cells; 0.29424 ng/mL) was 1654.776 and the “F.I. (AlamarBlue fluorescence at 595 nm, cell viability)” value (Mouse NFS-60 cells; 0.88272 ng/mL) was 2082.718. For the same substance, the “F.I. (AlamarBlue fluorescence at 595 nm, cell viability)” value (Mouse NFS-60 cells; 2.64816 ng/mL) was 2550.674, the “F.I. (AlamarBlue fluorescence at 595 nm, cell viability)” value (Mouse NFS-60 cells; 7.94449 ng/mL) was 2997.807 and the “F.I. (AlamarBlue fluorescence at 595 nm, cell viability)” value (Mouse NFS-60 cells; 23.83346 ng/mL) was 3277.812. For the same substance, the “F.I. (AlamarBlue fluorescence at 595 nm, cell viability)” value (Mouse NFS-60 cells; 71.50039 ng/mL) was 3308.383, the “F.I. (AlamarBlue fluorescence at 595 nm, cell viability)” value (Mouse NFS-60 cells; 214.50117 ng/mL) was 3868.075 and the “Number of CD45RA− CD41−” value (Human mPB CD34+ cells; 0.30483 ng/mL) was 4070. For the same substance, the “Number of CD45RA− CD41−” value (Human mPB CD34+ cells; 0.91449 ng/mL) was 3601, the “Number of CD45RA− CD41−” value (Human mPB CD34+ cells; 2.74348 ng/mL) was 4303 and the “Number of CD45RA− CD41−” value (Human mPB CD34+ cells; 8.23045 ng/mL) was 6404. The “Number of CD45RA− CD41−” value (Human mPB CD34+ cells; 24.69136 ng/mL) was 9122, the “Number of CD45RA− CD41−” value (Human mPB CD34+ cells; 74.07407 ng/mL) was 11200 and the “Number of CD45RA− CD41−” value (Human mPB CD34+ cells; 222.22222 ng/mL) was 11000. For the same substance, the “Number of CD45RA− CD41−” value (Human mPB CD34+ cells; 666.66667 ng/mL) was 11400, the “Number of CD45RA− CD41−” value (Human mPB CD34+ cells; 2000 ng/mL) was 11400 and the “Number of CD45RA− CD41−” value (Human mPB CD34+ cells; 6000 ng/mL) was 13200.
